Results taken from patent US8609870B2, “Treating various disorders using TrkB agonists” (Emory University, priority 2008, dated 2013).

Assays:
hippocampal neurons = experiment: Oxygen-glucose deprivation (OGD) apoptosis in hippocampal neurons; format: cell-based
TrkB [1] = experiment: TrkB phosphorylation in hippocampal neurons (immunofluorescent staining, immunoblotting); format: cell-based; conditions: hippocampal neurons
Experimental: Unless specifically described, primary hippocampal neurons are seeded on poly-L lysine coated coverslips in a 12-well plate. After 7 days in vitro, the neurons are treated with 100 ng/ml BDNF or variety of flavone compounds (1 μM) for 30 minutes, and then are washed with PBS. Cells are fixed with 3% formaldehyde in PBS at room temperature for 10 minutes. The cells then are permeabilized and blocked by 0.4% Triton X-100 and 2% FBS in PBS at room temperature for 15 minutes, are washed with PBS three times, and are treated with anti-MAP2 (1:200) and anti-phospho-TrkB antibodies (1:500). After staining with FITC- or Rhodamine-conjugated secondary antibody, the coverslips are mounted on slides. Fluorescent images are taken by a fluorescence microscope.
BDNF binding to TrkB induces its autophosphorylation and, subsequently, activation of downstream kinase pathways including MAPK and PI3/Akt. […] To examine whether an identified active compound stimulates TrkB-mediated downstream signaling cascades, Western analysis is performed and the activation of Akt and Erk also is monitored. […] To probe the time course of TrkB activation triggered by an identified active compound, hippocampal neurons are treated with an identified active compound at 500 nM and phosphorylation of Erk and Akt is determined over time by Western analysis. […]

TrkC = target: T1, TrkC (Homo sapiens, UniProt Q16288); experiment: Tyrosine phosphorylation of TrkC in transfected HEK293 cells; format: cell-based
T1 construct: expressed in transfected cells; host or cells: HEK293
From the text: (§1) To determine if an identified active compound promotes tyrosine phosphorylation of the other Trk receptors, HEK293 cells are transfected with various Trk receptors, which is followed by treatment with the identified active compound. Treatment with an identified active compound that elicits tyrosine phosphorylation in the TrkB receptor but not in the TrkA or TrkC receptor indicates an active compound.
(§2) To determine whether deoxygedunin binds the intra-cellular domain (ICD) or extra-cellular domain (ECD) of the TrkB receptor, ligand binding assays with [^3H]-deoxygedunin were performed. […] The coprecipitated HA-TrkB was also prominently tyrosine phosphorylated (see FIG. 14, 3rd panel).

BDNF −/− pups = experiment: Vestibular ganglion loss in BDNF −/− pups; format: in vivo, mouse
Experimental: The cochleae of various drug-treated pups (P1 or P2 BDNF +/+ and −/− pups) were first fixed through cardioperfusion of 4% paraformaldehyde (in PBS). Each cochlea was dissected out and postfixed in 1% osmium for one hour at room temperature. Samples were decalcified in 0.35 M EDTA (pH 7.5, in PBS) for 72 hours at 4° C., followed by gradual dehydration in graded alcohols, infiltrated, and embedded in epoxy resin with the conventional protocols. Consecutive cochlear sections (5 μm in thickness) were cut with a microtome (Microm HM335E, GmbH) along the axis of the modiolus. Sections were stained with toluidine blue. Vestibular ganglions were identified by their location in the auditory internal meatus with the basal cochlear turn and the cochlear modiolus as morphological reference landmarks.
To examine whether deoxygedunin activating TrkB involved endogenous BDNF, BDNF conditional knockout mice with BDNF gene deletion limited to cortex (thus allowing normal development) were used. Deoxygedunin (5 mg/kg) was intraperitoneally injected into the BDNF cortex conditional knockout mice and the mice were sacrificed at 4 hours. […] Mutant mice lacking BDNF were known to have severe deficiencies in coordination and balance, which have been associated with excessive degeneration in several sensory ganglia including the vestibular ganglion (Ernfors et al., Nature 368, 147-150 (1994)). To determine whether deoxygedunin rescued this loss of vestibular ganglions in BDNF −/− pups, conventional BDNF +/− mice were bred with the same genotype mice. Deoxygedunin (5 mg/kg, i.p.) was administered to the pregnant mice at day E7.5 until birth.

Erk1/2 and Akt = Erk1/2 and Akt activation in hippocampal neurons (Western blot); format: cell-based; conditions: hippocampal neurons
Experimental: BDNF binding to TrkB induces its autophosphorylation and, subsequently, activation of downstream kinase pathways including MAPK and PI3/Akt. To explore whether an identified active compound triggers TrkB activation, immunofluorescent staining on hippocampal neurons with anti-phospho TrkB antibody is conducted. To examine whether an identified active compound stimulates TrkB-mediated downstream signaling cascades, Western analysis is performed and the activation of Akt and Erk also is monitored. To test whether the stimulatory effect of an identified active compound is mediated through TrkB, cells are either untreated or treated with K252a, a selective inhibitor of the tyrosine kinase activity of the Trk family of neutrophin receptors. Cells treated with K252a block TrkB tyrosine phosphorylation in cells exposed to an identified active compound. To probe the time course of TrkB activation triggered by an identified active compound, hippocampal neurons are treated with an identified active compound at 500 nM and phosphorylation of Erk and Akt is determined over time by Western analysis. Whether stimulation of Erk and Akt by an identified active compound occurs in a dose dependent manner also is determined.
Both Akt and Erk1/2 were robustly activated by these molecules as well). […] The minimal required drug concentration was about 100-250 nM (see FIG. 7, right panels). […] To assess whether deoxygedunin provokes TrkB activation in the brain, mice (i.p.) were injected with a dose of 5 mg/kg for various time points. […] To establish that deoxygedunin is orally bioactive in provoking TrkB activation, two to three month old C57BL/6J mice were orally injected with various doses of 7,8-dihydroxyflavone or deoxygedunin then sacrificed 2 to 4 hours after administration. Brain lysates were prepared and analyzed by immunoblotting (see FIG. 10).

TrkB [2] = target: T2, TrkB (Homo sapiens, UniProt Q16620); experiment: Tyrosine phosphorylation of TrkB in transfected HEK293 cells; format: cell-based
T2 construct: expressed in transfected cells; host or cells: HEK293
From the text: as §1, §2

T2 sequence (Q16620 32-822, species assumed): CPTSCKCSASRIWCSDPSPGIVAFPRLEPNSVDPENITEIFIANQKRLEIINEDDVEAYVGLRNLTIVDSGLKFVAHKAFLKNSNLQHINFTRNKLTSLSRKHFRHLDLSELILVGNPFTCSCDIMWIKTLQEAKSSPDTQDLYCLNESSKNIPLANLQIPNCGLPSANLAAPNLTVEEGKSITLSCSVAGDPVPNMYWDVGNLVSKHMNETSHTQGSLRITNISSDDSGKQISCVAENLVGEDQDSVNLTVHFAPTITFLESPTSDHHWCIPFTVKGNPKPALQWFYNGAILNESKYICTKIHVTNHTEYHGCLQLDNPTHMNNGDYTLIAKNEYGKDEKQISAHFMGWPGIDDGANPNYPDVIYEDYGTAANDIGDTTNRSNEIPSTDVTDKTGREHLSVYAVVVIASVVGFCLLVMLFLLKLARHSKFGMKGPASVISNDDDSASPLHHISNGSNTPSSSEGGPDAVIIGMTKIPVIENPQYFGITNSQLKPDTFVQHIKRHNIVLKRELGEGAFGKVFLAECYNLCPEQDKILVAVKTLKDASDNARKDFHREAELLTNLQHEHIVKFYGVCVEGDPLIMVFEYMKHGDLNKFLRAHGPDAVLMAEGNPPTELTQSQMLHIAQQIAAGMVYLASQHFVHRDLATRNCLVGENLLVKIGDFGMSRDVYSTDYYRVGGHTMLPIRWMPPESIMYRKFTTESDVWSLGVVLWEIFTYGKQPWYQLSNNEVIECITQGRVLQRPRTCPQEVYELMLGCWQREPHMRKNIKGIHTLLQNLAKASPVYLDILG
T1 sequence (Q16288 32-839, species assumed): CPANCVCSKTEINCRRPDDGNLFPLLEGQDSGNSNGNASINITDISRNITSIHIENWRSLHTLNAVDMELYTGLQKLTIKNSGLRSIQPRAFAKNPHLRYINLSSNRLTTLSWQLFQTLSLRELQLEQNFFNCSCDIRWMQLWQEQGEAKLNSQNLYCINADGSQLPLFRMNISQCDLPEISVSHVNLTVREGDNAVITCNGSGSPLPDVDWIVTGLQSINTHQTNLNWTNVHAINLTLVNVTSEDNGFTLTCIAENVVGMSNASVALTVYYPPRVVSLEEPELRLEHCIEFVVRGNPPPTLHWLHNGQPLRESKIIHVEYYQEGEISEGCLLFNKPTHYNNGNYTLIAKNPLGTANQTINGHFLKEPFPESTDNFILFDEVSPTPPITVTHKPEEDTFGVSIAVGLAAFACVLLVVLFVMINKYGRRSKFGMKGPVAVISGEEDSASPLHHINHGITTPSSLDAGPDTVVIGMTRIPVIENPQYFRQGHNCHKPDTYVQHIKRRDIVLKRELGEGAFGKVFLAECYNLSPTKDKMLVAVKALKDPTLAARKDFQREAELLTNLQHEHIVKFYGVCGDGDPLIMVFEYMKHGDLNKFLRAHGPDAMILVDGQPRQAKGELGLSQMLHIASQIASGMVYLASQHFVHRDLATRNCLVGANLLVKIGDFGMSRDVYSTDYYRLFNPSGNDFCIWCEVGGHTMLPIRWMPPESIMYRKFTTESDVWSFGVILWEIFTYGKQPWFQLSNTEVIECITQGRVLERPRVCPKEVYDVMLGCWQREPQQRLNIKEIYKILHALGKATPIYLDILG

For `CC(=O)O[C@@H]1C[C@H]2C(C)(C)C(=O)C=C[C@]2(C)[C@H]2CC[C@]3(C)C(=CC(=O)O[C@H]3c3ccoc3)[C@@]21C` [deoxygedunin], the “protective effects on hippocampal neurons under OGD” value (hippocampal neurons; apoptotic ratio compared to BDNF and DMSO) was “potent protective effects”, the “titration assay under OGD” value (hippocampal neurons; dose titration) was “protects neurons in a dose-dependent manner” and the TrkB phosphorylation (TrkB [1]) was “strong TrkB phosphorylation”. For the same compound, the “tyrosine phosphorylation in TrkC” value (TrkC) was “not in TrkA or TrkC receptor”, the “vestibular ganglia in stained inner ear sections” value (BDNF −/− pups; BDNF mutant pups, 5 mg/kg i.p.) was “displayed intact vestibular ganglia” and the “vestibular ganglia detected (quantitative analysis)” value (BDNF −/− pups; BDNF −/− pups, 5 mg/kg i.p. to pregnant mice from E7.5 and to pups) was 42.2±6.3%. The “survival of BDNF −/− pups under treatment” value (BDNF −/− pups; neonatal pups receiving 5 mg/kg deoxygedunin) was “continued dying at P1 or P2”, the “minimal required drug concentration for Erk1/2 and Akt activation” value (Erk1/2 and Akt) was 100 to 250 nM and the “Erk1/2 and Akt activation” value (Erk1/2 and Akt; time course and dose dependency) was “prominently provoked both Erk1/2 and Akt activation”. For the same compound, the “tyrosine phosphorylation in TrkB” value (TrkB [2]) was “elicited tyrosine phosphorylation in TrkB”.
